Consider six substances from patent US8618055B2, “Prominin-1 peptide fragments and uses thereof” (Children's Medical Center Corporation, priority 2008, dated 2013).

Entries after “also recorded” stand apart in the source; their conditions may differ.

For test [1], the system named is endothelial cells. As to the kind of experiment: I125-VEGF binding to endothelial cells in presence of peptide. Type of test: cell-based. The note with it: for VEGF binding to cells (endothelial cells) with #237 fragments: 100 μg/ml of each peptide. The procedure: (§1) 10000 cells were incubated in binding buffer containing 20 mM Hepes, 0.1% BSA and I125-VEGF (12 ng/ml) for 3 h on ice.
(§2) In order to characterize the effect of the peptides on VEGF binding to endothelial and melanoma cells, the cells were incubated with various peptides (720 μg/ml) in the presence of […] (12 ng/ml) (FIG. 3). Peptide #237 increased VEGF binding to endothelial as well to melanoma cells. 10000 cells were incubated in binding buffer containing 20 mM Hepes, 0.1% BSA and I^125-VEGF (12 ng/ml) for 3 h on ice. Following 3 washings, the radioactive levels were determined by gamma counter. An increase of more than 25 times in I^125-VEGF binding was observed when peptide #237 was added to both kinds of cells. All other peptides had no effect on VEGF binding.
(§3) To characterize which are the essential amino acids within the #237 peptide that are crucial to accelerate VEGF binding to the cells, three shorter peptides were designed as presented at Table 2. The cells were treated with the smaller peptides in the same way as described in FIG. 3. 10000 cells were incubated in binding buffer containing 20 mM Hepes, 0.1% BSA, I^125-VEGF (12 ng/ml) and 100 μg/ml of each peptide, for 3 h on ice. Following 3 washings with binding buffer, the radioactive levels were determined using a gamma counter.
The inventors also investigated which amino acid residues in peptide #237 are important for the various angiogenic and VEGF related binding activity described herein. To achieve this, the inventors singly changed each of the 12 amino acid residues in peptide #237 to alanine and performed experiments examining the effect of the alanine substitution at various positions on endothelial cell binding to VEGF. A total of 12 alanine substituted peptides were made and tested: Ala-1, Ala-2, Ala-3, Ala-4, Ala-5, Ala-6, Ala-7, Ala-8, Ala-9, Ala-10, Ala-11, Ala-12, (SEQ. ID. NOS. 39-50) wherein the number indicate the position where the alanine substitution occurred. (Note that the amino acid at position 12 of peptide #237 was changed to glycine in Ala-12). In addition, a “flip #237” peptide having the sequence AAVVTTTQRQVRD (SEQ. ID. NO. 53) was also made and studied.

For a further test, the system named is mouse corneas. As to the kind of experiment: Corneal micropocket assay with VEGF pellet. Type of test: in vivo. To be noted: pellet 160 ng VEGF 165 + 1.3 ug #237 vs VEGF pellet alone, 5 days. The procedure: Vigorous vessel in-growth from the limbus at 5 days was recorded as a positive response.
In order to evaluate the modulating effect of peptide #237 on the angiogenesis process, a corneal micropocket assay was performed. Two kinds of pellets were created, both containing 160 ng carrier-free recombinant human VEGF 165 (R&D Systems, Minneapolis, Minn.), one of which contains 1.3 ug of #237 peptide. The pellets were implanted into micropockets created in the cornea of two groups of anesthetized mice (n=4). Through the use of standardized slow-release pellets, a predictable angiogenic response is generated over the course of 5 days and then quantified. The area of neovascularization was calculated as vessel area, which is calculated as the product of vessel length measured from the limbus and clock hours around the cornea, using the following equation: vessel area (mm^2)=[clock hours×vessel length (mm)×0.2 mm]. […] The in vivo experiment confirms that the peptide stimulates cell proliferation, and is therefore a good candidate to induce angiogenesis.

Test [2] concerns Primary cortical neuronal cells. As to the kind of experiment: Neurite outgrowth in primary cortical neuronal cells. It counts as cell-based. The note with it: 0.25 μg/μL, 2 days, compared to scrambled peptide. The procedure:
Primary cortical neuronal cells (2×10^4 per well) were plated on poly-L-lysine coated 24 well dishes and treated with either scrambled #237 or peptide #237 (0.25 μg/μL). Cells were then cultured for 2 days.
Neurite outgrowth was evaluated by counting the number of neurites extended from the same number of cells and at the same area.
Peptide 237 increases neurite outgrowth in terminally differentiated cortical neurons. The number of neurite arborizations in these postmitotic cells was estimated using light microscopy by manually counting the number of projections in a given field containing approximately equivalent number of cells. Quantification of neurite outgrowth was also performed by fluorescent staining with a neuron-specific marker (i.e., neurofilament) followed by automated, computational analysis (data not shown).

In test [3] the test system is calvaria critical size defect. As to the kind of experiment: Calvaria critical size defect bone repair experiment. It counts as in vivo, rat. To be noted: local treatment 28 days, 100 μg/mice/5 days, 5-mm defect, vs saline. The procedure:
In this study, the inventors examined the ability of peptide #237 to enhance repair of a critical size defect in a rat calvaria critical size defect experiment. Critical size calvarial defects (5-mm diameter) were created in rats and locally treated with saline (control) or peptide #237 for 28 days (100 μg/mice/5 days). After 28 days, analysis of bone regeneration was determined by soft x-ray.

A further test concerns nude mouse ear wound. As to the kind of experiment: Ear wound neovascularization model. Type of test: in vivo. The note with it: matrigel containing #237 (180 μg) daily for 5 days, 2.25 mm punch, vs plain matrigel. The procedure: Microvascular in-growth into damaged tissue is an essential component of the normal healing process. In fact, wound therapy is often aimed at promoting neovascularization. The model consists of wounding the dorsal aspect of the ear of a nude mouse. A circular punch was used to create a standardized wound on a nude mouse ear. Constant diameter of wound is given by the size of the punch (2.25 mm), and the ears were treated daily with plain matrigel (FIG. 8A) or matrigel containing peptide #237 (180 μg) (FIG. 8B) for 5 days. […] In order to evaluate the wound neovascularization, the mice were inoculated by dextran-FITC which specifically labeled the endothelial cells, immediately after anesthetizing them.

Another test concerns B16-F10 melanoma cells. As to the kind of experiment: I125-VEGF binding to melanoma cells in presence of peptide. Type of test: cell-based. To be noted: I125-VEGF 12 ng/ml, 3 h on ice. On the procedure:
as §1, §2, §3

The subject of the next test is mouse ear wound. As to the kind of experiment: Mouse ear punch wound healing model, 14 days. Type of test: in vivo. To be noted: MATRIGEL containing #237 daily, day 14, vs MATRIGEL
On the procedure: In addition to increasing angiogenesis, peptide #237 also accelerates wound healing. In order to evaluate the effect of the peptide on wound healing, ears of five mice were wounded using a circular punch, which creates a wound measuring 1 mm. The ears of wounded mice were treated daily with either MATRIGEL or MATRIGEL containing #237 peptide for 14 days.

The next test relates to ischemic hind limb. As to the kind of experiment: Mouse hind limb ischemia model (femoral artery ligation, laser Doppler). It counts as in vivo. The procedure:
Mice were ligated in one of their femoral arteries (the right limb) to simulate hind limb ischemia. The blood flow in mice was analyzed by machine for each mouse before and immediately after the procedure to evaluate if the femoral was ligated properly. Blood flow was compared with the non-operated leg by a laser Doppler imager. […] The ischemic limb is seen as the limb on left side in the laser Doppler images.
In FIG. 12, the white areas indicate normal perfusion with normal blood circulation and black areas indicate no blood flow in the ischemic left hind limb. […] Dark shaded areas within the white areas located at the distal ends of the limbs indicate extremely good blood flow.
The blood flow of the ischemic hind limb is expressed as the ratio between the perfusion of the ischemic limb and the uninjured limb in FIG. 13.

In test [4] the test system is endothelial cells. As to the kind of experiment: Matrigel assay, endothelial cell migration in vivo (FACS). The note with it: for endothelial cells among matrigel liberated cells (FACS, CD31): Matrigel s.c. with 500 ng VEGF, with or without 180 μg #237, day 6. Also on record: species or system C57bl mice. On the procedure:
On day 6, animals were sacrificed and fluorescence-activated cell sorting (FACS) analysis was used for determination of the matrigel liberated cells. In order to distinguish the endothelial cells from hematopoietic cells, the cells were incubated with two antibodies CD31-PE and CD45-APC which are specific to endothelial cells and hematopoietic cells respectively.

For the substance “Ala-5: peptide #237 with the arginine at position 5 replaced by alanine (DRVQAQTTTVVA)”, the “ability of endothelial cells to bind VEGF, alanine substituted #237 peptides” value in the test on endothelial cells [1] (compared to the original #237) is “increased by more than twice”.
As to DRVQRQ [#237A], the “VEGF binding to cells (endothelial cells) with #237 fragments” value (“VEGF binding to cells” below) with endothelial cells [1] (I125-VEGF 12 ng/ml, 3 h on ice) is “abolished; also recorded: not crucial to enhance VEGF binding”.
In the case of DRVQRQTTTVVA [Peptide #237], the “increase in vessel density versus control pellet” value in the test on mouse corneas is recorded as 53%. In addition, the neurite outgrowth result in test [2] is “dramatically induces branched and longer neurites”. Besides, the “bone regeneration (soft x-ray)” value in test [3] was “completely sealed and covered the aperture”. In addition, the “neovascularization around the ear wound site” value in the test on nude mouse ear wound is on record as “significantly increased”. For the same substance, the “increase in I125-VEGF binding to endothelial cells” value in the test on endothelial cells [1] (peptide 720 μg/ml, I125-VEGF 12 ng/ml, 10000 cells, 3 h on ice) is on record as “more than 25 times”. In addition, in the test with B16-F10 melanoma cells (peptide 720 μg/ml, 10000 cells), the “increase in I125-VEGF binding to melanoma cells” value is “more than 25 times”. For the same substance, the wound area result in the test with mouse ear wound is on record as “significantly smaller”. The limb perfusion result in the test on ischemic hind limb (intraperitoneal immediately following femoral artery occlusion, within three to six days) is listed as “significantly improves limb perfusion”. Moreover, the “increase perfusion compared to saline-treated mice” value with ischemic hind limb (ratio ischemic/uninjured limb, on average) is reported as 30-40%. In addition, the “endothelial cells relative to VEGF alone” value with endothelial cells [4] (180 ug #237 added to VEGF in Matrigel, day 6) is listed as “six times more”. Besides, in the test with endothelial cells [4], the “endothelial cells among matrigel liberated cells (FACS, CD31)” value is listed as 0.42%.
For the substance TTTVVA [#237B], the “VEGF binding to cells” value with endothelial cells [1] (I125-VEGF 12 ng/ml, 3 h on ice) was “partially increases; also recorded: partial increase”. Further, the “VEGF binding to melanoma cells with #237 fragments” value with B16-F10 melanoma cells (100 μg/ml of each peptide) is “better binding”.
Regarding VEGF [reference compound], the “endothelial cells among matrigel liberated cells (FACS, CD31)” value in the test on endothelial cells [4] is recorded as 0.07%.
On to VQRQTTTV [#237C], for which the “VEGF binding to cells” value with endothelial cells [1] (I125-VEGF 12 ng/ml, 3 h on ice) is on record as “abolished; also recorded: essentially eliminated”.
